Results on 17 compounds are retold here after PubChem BioAssay AID624167 (Sanford-Burnham Center for Chemical Genomics, 2012).

Activity calls are given as the source filed them.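 How the source made its calls: active means mean IC50 for reducing PEG3 promoter reporter signal at or below a set limit, with IC50 above the limit in both counter screens; inactive means the rest, including counter screen hits.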

Test in all cases: Peg3 promoter luciferase inhibitors, potency, dose response, cell-based, HeLa, CREF/GAPDH counter-screen panel (AID 624167)
In general terms: A counterscreen serves to expose hits that act by an unwanted route or on another target.

The subject of one experiment is Rat fibroblasts (CREF). The settings on record: CREF/GAPDH counter-screens.
In experiment [1] the target is PEG-3 (UniProt Q6IN02). The settings on record: HeLa PEG-Prom luciferase reporter, overnight, CREF/GAPDH counter-screens, mean of runs. For orientation: A reporter such as luciferase makes a cellular process visible.
PEG-3 (UniProt Q6IN02), sequence (Q6IN02 whole entry, looked up): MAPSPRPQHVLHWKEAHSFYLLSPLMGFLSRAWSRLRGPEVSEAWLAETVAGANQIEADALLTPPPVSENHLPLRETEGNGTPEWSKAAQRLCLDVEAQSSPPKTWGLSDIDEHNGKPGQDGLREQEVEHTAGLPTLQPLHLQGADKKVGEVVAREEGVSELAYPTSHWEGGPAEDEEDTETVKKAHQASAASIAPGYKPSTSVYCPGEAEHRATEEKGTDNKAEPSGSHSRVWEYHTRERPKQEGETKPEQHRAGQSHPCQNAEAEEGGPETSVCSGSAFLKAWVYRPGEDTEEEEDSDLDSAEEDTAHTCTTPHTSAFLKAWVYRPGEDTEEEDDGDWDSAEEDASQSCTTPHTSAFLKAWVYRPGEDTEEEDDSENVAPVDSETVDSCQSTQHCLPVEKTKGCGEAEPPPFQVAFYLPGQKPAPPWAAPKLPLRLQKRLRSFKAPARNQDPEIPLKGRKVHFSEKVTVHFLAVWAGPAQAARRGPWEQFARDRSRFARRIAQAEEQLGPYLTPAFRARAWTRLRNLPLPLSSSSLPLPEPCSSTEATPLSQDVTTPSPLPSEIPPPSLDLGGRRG
In experiment [2] the test system is PEG-3. The following applies: HeLa PEG-Prom luciferase reporter, overnight, CREF/GAPDH counter-screens.
Where [3] appears, read: run 1, dose range 1, individual replicate IC50 per panel.
Setting [4] is: run 2, dose range 1, individual replicate IC50 per panel.

Turning to `CN(C)c1ccc(/C=C2\SC(=O)N(CCc3nnc(N)s3)C2=O)cc1`, the half-inhibitory concentration (IC50) in the experiment with Rat fibroblasts (CREF) (mean of runs) was 3.18 µM; with Rat fibroblasts (CREF) (setting [3]), 1.61 µM; in the experiment on Rat fibroblasts (CREF) (setting [4]) it was 4.75 µM; at PEG-3 [1] it was 2.96 µM; in the experiment on PEG-3 [2] (setting [3]), 3.34 µM; with PEG-3 [2] (setting [4]) it was 2.58 µM.

For the compound `Cc1nn(-c2nc3ccccc3[nH]2)c(=O)c2ccccc12`, the concentration for half-maximal inhibition (IC50) was 0.331 µM in the experiment on Rat fibroblasts (CREF) (mean of runs); 0.351 µM in the experiment on Rat fibroblasts (CREF) (setting [3]); 0.311 µM in the experiment on Rat fibroblasts (CREF) (setting [4]); 0.491 µM on PEG-3 [1]; 0.51 µM with PEG-3 [2] (setting [3]); 0.471 µM with PEG-3 [2] (setting [4]).

For the compound `CN(c1ccc2nc3ccccc3c(=O)n2n1)C1CCCCC1`, the 50% inhibitory concentration (IC50) in the experiment with Rat fibroblasts (CREF) (mean of runs) was 0.772 µM; in the experiment on Rat fibroblasts (CREF) (setting [3]), 0.789 µM; in the experiment with Rat fibroblasts (CREF) (setting [4]), 0.755 µM; at PEG-3 [1] it was 3.97 µM; with PEG-3 [2] (setting [3]) it was 3 µM; with PEG-3 [2] (setting [4]) it was 4.94 µM.

For `CN[C@H]1C[C@H]2c3[nH]c4ccc(-c5ccc(OC)cc5)cc4c3CCN2C(=O)[C@H]1[C@H](C)O`, the IC50 in the experiment with Rat fibroblasts (CREF) (mean of runs) is 16.1 µM; in the experiment on Rat fibroblasts (CREF) (setting [3]), 16.9 µM; in the experiment with Rat fibroblasts (CREF) (setting [4]) it was 15.3 µM; on PEG-3 [1], 10.5 µM; in the experiment on PEG-3 [2] (setting [3]) it was 12.5 µM; with PEG-3 [2] (setting [4]), 8.39 µM.

In the case of `O=C(COc1ccc(Cl)cc1Cl)Nc1ccccn1`, the IC50 in the experiment on Rat fibroblasts (CREF) (mean of runs) was 0.904 µM; in the experiment on Rat fibroblasts (CREF) (setting [3]) it was 0.795 µM; in the experiment on Rat fibroblasts (CREF) (setting [4]), 1.01 µM; at PEG-3 [1], 0.93 µM; in the experiment on PEG-3 [2] (setting [3]), 1.27 µM; in the experiment with PEG-3 [2] (setting [4]) it was 0.594 µM.

As to `Fc1ccc(-c2nnc(NC3=NCCCCC3)o2)cc1`, the IC50 is 3.58 µM in the experiment with Rat fibroblasts (CREF) (mean of runs); 3.94 µM with Rat fibroblasts (CREF) (setting [3]); 3.23 µM with Rat fibroblasts (CREF) (setting [4]); 4.06 µM on PEG-3 [1]; 4.11 µM in the experiment with PEG-3 [2] (setting [3]); 4 µM in the experiment with PEG-3 [2] (setting [4]).

In the case of `CN=c1scc(-c2cccs2)n1/N=C/c1ccccc1O`, the IC50 was 5.44 µM in the experiment on Rat fibroblasts (CREF) (mean of runs); 5.28 µM in the experiment with Rat fibroblasts (CREF) (setting [3]); 5.6 µM with Rat fibroblasts (CREF) (setting [4]); 0.26 µM with PEG-3 [2] (setting [3]); > 100 µM in the experiment on PEG-3 [2] (setting [4]). Moreover, the IC50 result at PEG-3 [1] is “inactive”.

As to `CCn1nc(C)cc1-c1nnc(Sc2ncc([N+](=O)[O-])s2)n1C`, the IC50 in the experiment with Rat fibroblasts (CREF) (mean of runs) was 4.87 µM; with Rat fibroblasts (CREF) (setting [3]) it was 5.31 µM; in the experiment on Rat fibroblasts (CREF) (setting [4]), 4.43 µM; at PEG-3 [1], 6.37 µM; with PEG-3 [2] (setting [3]), 8.65 µM; in the experiment with PEG-3 [2] (setting [4]), 4.09 µM.

With `Cc1cccc(/C=N/Nc2ccc3ccccc3n2)c1`, the IC50 in the experiment on Rat fibroblasts (CREF) (mean of runs) is 1.41 µM; in the experiment on Rat fibroblasts (CREF) (setting [3]) it was 2.44 µM; in the experiment on Rat fibroblasts (CREF) (setting [4]) it was 0.37 µM; at PEG-3 [1] it was 4.18 µM; with PEG-3 [2] (setting [3]), 3.78 µM; in the experiment on PEG-3 [2] (setting [4]), 4.58 µM.

For the compound `C=C1CC(COc2ccc3c(C)c(Cl)c(=O)oc3c2)(c2ccccc2)OC1=O` (configuration not stated), the IC50 in the experiment on Rat fibroblasts (CREF) (mean of runs) is 9.11 µM; with Rat fibroblasts (CREF) (setting [3]), 9.32 µM; in the experiment on Rat fibroblasts (CREF) (setting [4]), 8.9 µM; on PEG-3 [1] it was 5.04 µM; in the experiment with PEG-3 [2] (setting [3]), 6.47 µM; in the experiment on PEG-3 [2] (setting [4]), 3.62 µM.

With `Cc1ccc(C(=O)Nc2ncc([N+](=O)[O-])s2)cc1`, the IC50 was 8.85 µM in the experiment with Rat fibroblasts (CREF) (mean of runs); 5.94 µM in the experiment on Rat fibroblasts (CREF) (setting [3]); 11.8 µM in the experiment with Rat fibroblasts (CREF) (setting [4]); 2.73 µM at PEG-3 [1]; 2.01 µM in the experiment on PEG-3 [2] (setting [3]); 3.45 µM with PEG-3 [2] (setting [4]).

Regarding `Clc1cccc(-c2nc(-c3ccccn3)no2)c1`, the concentration for half-maximal inhibition (IC50) is 2.23 µM with Rat fibroblasts (CREF) (mean of runs); 1.82 µM in the experiment with Rat fibroblasts (CREF) (setting [3]); 2.63 µM in the experiment with Rat fibroblasts (CREF) (setting [4]); 4.8 µM at PEG-3 [1]; 3.68 µM in the experiment with PEG-3 [2] (setting [3]); 5.92 µM with PEG-3 [2] (setting [4]).

As for `Cc1ccc(C(=O)Nc2cnc3ccccc3c2)cc1`, the half-inhibitory concentration (IC50) in the experiment with Rat fibroblasts (CREF) (mean of runs) was 3.89 µM; with Rat fibroblasts (CREF) (setting [3]), 3.52 µM; in the experiment on Rat fibroblasts (CREF) (setting [4]), 4.26 µM; on PEG-3 [1] it was 0.499 µM; in the experiment with PEG-3 [2] (setting [3]), 0.416 µM; with PEG-3 [2] (setting [4]) it was 0.582 µM.

For `CCOc1ccc(-c2ccc(SC)nn2)cc1`, the IC50 with Rat fibroblasts (CREF) (mean of runs) is 0.473 µM; in the experiment with Rat fibroblasts (CREF) (setting [3]) it was 0.313 µM; with Rat fibroblasts (CREF) (setting [4]), 0.632 µM; on PEG-3 [1] it was 4.15 µM; with PEG-3 [2] (setting [3]), 2.87 µM; in the experiment with PEG-3 [2] (setting [4]), 5.43 µM.

As for `COc1cc(NS(C)(=O)=O)ccc1Nc1c2ccccc2nc2ccccc12`, the IC50 with Rat fibroblasts (CREF) (mean of runs) was 4.97 µM; in the experiment on Rat fibroblasts (CREF) (setting [3]), 8.61 µM; in the experiment with Rat fibroblasts (CREF) (setting [4]) it was 1.33 µM; on PEG-3 [1], 10.7 µM; with PEG-3 [2] (setting [3]), 11 µM; in the experiment with PEG-3 [2] (setting [4]), 10.4 µM.

On to `Cc1cc(C)c2c(N)c(C(=O)Nc3ncc(C)s3)sc2n1`, for which the IC50 with Rat fibroblasts (CREF) (mean of runs) is 3.32 µM; in the experiment with Rat fibroblasts (CREF) (setting [3]), 2.88 µM; in the experiment on Rat fibroblasts (CREF) (setting [4]), 3.76 µM; on PEG-3 [1], 1.67 µM; in the experiment on PEG-3 [2] (setting [3]), 1.09 µM; in the experiment on PEG-3 [2] (setting [4]) it was 2.26 µM.

`CC1CCN(c2ccc(-c3cccs3)nn2)CC1`: the IC50 in the experiment on Rat fibroblasts (CREF) (mean of runs) is 0.341 µM; with Rat fibroblasts (CREF) (setting [3]) it was 0.316 µM; in the experiment with Rat fibroblasts (CREF) (setting [4]), 0.366 µM; on PEG-3 [1], 1.82 µM; in the experiment on PEG-3 [2] (setting [3]), 2.16 µM; in the experiment on PEG-3 [2] (setting [4]), 1.49 µM.

Broadly, the IC50 is the concentration needed to halve the response being measured.
